US9872875B2, “Component and method for treating viral disease” (Institut Pasteur of Shanghai, Chinese Academy of Sciences, priority 2012, dated 2018)

Experiments:
[1] = system: Coxsackie virus A16 (CVA16); assay: Coxsackie virus A16 TCID50 in RD cells; format: cell-based
Excerpt: Coxsackie virus A16 in 10-fold serial dilutions were used to infect RD cells at different E02 concentrations. After cultured for 2 days, CPE was observed under optical microscope, and stained with crystal violet, to calculate 50% tissue culture infective dose. Specific procedures were the same as the TCID50 testing method of Example 1.

[2] = system: EV71 clinical isolate SH-TS; assay: EV71 SH-TS replication in RD cells, quantitative RT-PCR; format: cell-based, Enterovirus 71; conditions: MOI 0.1, 46 h
Description: (§1) RD cells were infected with EV71 SH-TS or SH-RS at different E02 concentrations, at the MOI of 0.1. After cultured for 46 h, viral RNA in culture supernatant was extracted. Relative EV71 viral load was determined by quantitative RT-PCR. See Example 1 for specific procedures of quantitative RT-PCR.

CVA16 = CVA16 infection in ICR newborn mice, viral RNA in tissues and serum; format: in vivo; conditions: 50 mg/kg of E02 intraperitoneally; 6 days after infection
Description: 5×10^6 TCID50 CVA16 viruses (50 μl) were injected to infect two three-day-old ICR newborn mice. Five days after infection, serum and tissues (brain, bone marrow, heart, intestine, kidney, liver, lung, muscle, spleen, and thymus) were collected. Viral RNA in serum was extracted (viral RNA extraction kit, QIAGEN QIAamp Viral RNA Mini Kit, cat #52906). Tissue samples were placed in RNAstore preservation solution (Tiangen, DP408-02) and stored in −80° C. refrigerator. Total tissue RNA was extracted using tissue RNA extraction kit (RNAprep pure total animal tissue RNA extraction kit). Copies of CVA16 viral genome and GAPDH gene were detected using one-step real-time quantitative RT-PCR kit (QIAGEN QuantiTect SYBR Green RT-PCR Kit) in ABI 7900HT 384-well plate PCR system. Primers are the same as that of EV71 5′UTR primers. See Table 3 and Table 4 for reaction system and PCR program. See FIG. 8 for relative viral load in each tissue and serum. Clearly, CVA16 virus was detected mainly in brain, spinal cord, muscle, and serum.
Three-day-old ICR newborn mice were infected with CVA16 to test E02's efficacy to inhibit EV71 in vivo. Test mice were divided into three groups: drug group, infection group, and placebo group. […] RNA from tissues and serum were extracted and CVA16 viral RNA determined Treatment procedures were the same as previously described in “1.”

[3] = system: EV71 clinical isolate EV71 FY573; assay: Time of E02 addition assay, EV71 in RD cells; format: cell-based, Enterovirus 71; conditions: 32 μM of E02, MOI 10, 18 h
Description: RD cells in 96-well plates were infected with MOI 10 EV71 clinical isolate EV71 FY573. In three periods at prior to, during, and post infection, 32 μM of E02 (dissolved in DMEM) or DMEM were added, EV71 replication was measured to determine the stage, in which E02 inhibits EV71 infection. Steps are detailed as follows:
(1) Cell seeding: 24 h prior to infection, RD cells were seeded in 96-well cell culture plates, 5×10^4 cells per well;
(2) Cells pre-incubated with drug: cell culture medium was removed from 96-well plates, each well was added 100 μl of DMEM, and then added 11 μl of 320 μM E02 solution (cell group treated with drug) or 11 μl of DMEM (cell group without drug treatment), incubated at 37° C. for 1 h.
(3) Virus pre-incubated with drug: virus stock solution was diluted to 5×10^6 TCID50/ml with DMEM, dispensed to 96-well plates at 100 μl per well, and 11 μl of 320 μM E02 solution (B and C groups) or 11 μl of DMEM (A and F groups) were added, and incubated at 37° C. for 1 h.
(4) Infection: After cells and virus were incubated for one hour, drug was discarded from cell culture plates. 111 μl of pre-incubated virus with drug (B and C groups) or DMEM (A and F groups) was transferred to cell culture plates. After 100 μl of virus solution was transferred to D and E groups, 11 μl of 320 μM E02 was added, and incubated at 37° C. for 1 h.
(5) One hour after viral infection of cells, virus and drug mixture was discarded from cell culture plates. Cells were washed twice with 50 μl of DMEM. 180 μl per well of DMEM containing 2% FBS, 20 μl of 320 μM E02 solution (B, E, and F groups) or 20 μl of DMEM (A, C, and D groups) were added. […]
(7) Viral load determination: EV71 5′UTR gene was detected using ABI Taqman one-step RT-PCR kit (ABI taqMan® One-Step RT-PCR, Cat #4309169) in ABI 7900HT 384-well plates PCR system. […]
(8) PCR standard curves were used to convert CT values of PCR to viral load (standard curves were obtained by CT values determined by performing RT-PCR on RNA extracted from viruses with defined titers at 10-fold serial dilutions). […]

[4] = system: EV71 M.A.V. (mouse-adapted strain); assay: EV71 M.A.V. TCID50 in RD cells; format: cell-based, Enterovirus 71
Excerpt: EV71 M.A.V. in 10-fold serial dilutions was used to infect RD cells at different E02 concentrations. After cultured for 3-4 days, CPE was observed under optical microscope, and stained with crystal violet, to calculate 50% tissue culture infective dose. Specific steps are similar to that for testing corresponding TCID50 of Example 1.

[5] = system: EV71 clinical isolate SH-RS; assay: EV71 SH-RS replication in RD cells, quantitative RT-PCR; format: cell-based, Enterovirus 71; conditions: MOI 0.1, 46 h
Description: as §1

For `Cc1ccc(C(=O)Nc2ccc(S(=O)(=O)O)c3cc(S(=O)(=O)O)cc(S(=O)(=O)O)c23)cc1NC(=O)c1cccc(NC(=O)Nc2cccc(C(=O)Nc3cc(C(=O)Nc4ccc(S(=O)(=O)O)c5cc(S(=O)(=O)O)cc(S(=O)(=O)O)c45)ccc3C)c2)c1` [E02, Suramin Sodium], the “effect on CVA16 TCID50 in RD cells” value ([1]; 10 μM of E02) was “CVA16 TCID50 reduction”, the “CVA16 titer in RD cells” value ([1]; 25 μM of E02, reduced from 1×10^9 TCID50/ml, 2 days) was 1×10^4 TCID50/ml and the “concentration reducing EV71 replication by 10-fold” value [2] was 7.14 μM. The “concentration reducing EV71 replication by 100-fold” value [2] was 25.35 µM, the “CVA16 RNA in brain, bone marrow, muscle and serum” value (CVA16) was “significantly decreased” and the “inhibition of EV71 infection, E02 added after infection (F)” value [3] was “could not inhibit EV71 infection”. For the same compound, the “inhibition of EV71 infection, E02 added during infection (D, E)” value [3] was “can inhibit EV71 infection”, the “inhibition of EV71 infection, E02 added prior to infection (B, C)” value [3] was “can inhibit EV71 infection” and the “inhibition of EV71 mouse adapted strain infection of RD cells” value ([4]; 10 μM of E02) was “completely inhibit”. The EC50 ([4]; Enterovirus A, EV71, RD, read-out: EC50 to reduce EV71 M.A.V. TCID50 in RD cells) was 8.07 µM, the “concentration reducing EV71 replication by 10-fold” value [5] was 4.41 μM and the “concentration reducing EV71 replication by 1000-fold” value [5] was 16.29 µM.
